From patent US20200017496A1 (priority 2017, published 2020)

Key:
[1] = tested on: Enterobacter cloacae (ECL) isolates; assay: MIC of compounds alone and combined with antibacterials, broth microdilution (CLSI); assay type: cell-based
In short: (§1)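 Log-phase isolates at final 5·10^5 CFU/mL in cation-adjusted Mueller-Hinton broth, incubated 16-20 h at 35° C in ambient air. MIC read visually as lowest concentration preventing growth, for compound alone and for antibacterial at each compound concentration.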

[2] = tested on: Escherichia coli (ECO) isolates; assay: as above; assay type: cell-based
In short: as §1

CC(C)(O/N=C(\C(=O)N[C@@H]1C(=O)N2C(C(=O)[O-])=C(C[n+]3ccccc3)CS[C@H]12)c1csc(N)n1)C(=O)O [CAZ, Ceftazidime]
MIC ATB in combination ([1]; strain ECL UFR196, antibacterial combined with AF1 @ 4 μg/mL): 2 µg/mL | MIC ATB in combination ([1]; strain ECL UFR196, antibacterial combined with AF1 @ 8 μg/mL): 0.5 µg/mL | MIC ATB in combination ([1]; strain ECL UFR197, antibacterial combined with AF1 @ 4 μg/mL): 1 µg/mL | MIC ATB in combination ([1]; strain ECL UFR197, antibacterial combined with AF1 @ 8 μg/mL): 0.5 µg/mL | MIC ATB in combination ([1]; strain ECL UFR198, antibacterial combined with AF1 @ 4 μg/mL): 4 µg/mL | MIC ATB in combination ([1]; strain ECL UFR198, antibacterial combined with AF1 @ 8 μg/mL): 4 µg/mL | MIC ATB in combination ([2]; ECO 4133, AF1 @ 4 μg/mL): <=0.25 μg/mL | MIC ATB in combination ([2]; ECO 4133, AF1 @ 8 μg/mL): <=0.25 μg/mL | MIC ATB in combination ([2]; ECO 5302, AF1 @ 4 μg/mL): <=0.25 μg/mL | MIC ATB in combination ([2]; ECO 5302, AF1 @ 8 μg/mL): <=0.25 μg/mL | MIC ATB in combination ([2]; ECO 131119, AF1 @ 4 μg/mL): <=0.25 μg/mL | MIC ATB in combination ([2]; ECO 131119, AF1 @ 8 μg/mL): <=0.25 μg/mL | MIC ATB in combination ([2]; ECO 180070, AF1 @ 4 μg/mL): <=0.25 μg/mL | MIC ATB in combination ([2]; ECO 180070, AF1 @ 8 μg/mL): <=0.25 μg/mL | MIC ATB in combination ([2]; ECO 190314, AF1 @ 4 μg/mL): 0.5 µg/mL | MIC ATB in combination ([2]; ECO 190314, AF1 @ 8 μg/mL): <=0.25 μg/mL | MIC ATB in combination ([2]; ECO 190317, AF1 @ 8 μg/mL): <=0.25 μg/mL | MIC ATB in combination ([2]; ECO 190457, AF1 @ 4 μg/mL): <=0.25 μg/mL | MIC ATB in combination ([2]; ECO 190457, AF1 @ 8 μg/mL): <=0.25 μg/mL | MIC ATB in combination ([2]; ECO 190549, AF1 @ 4 μg/mL): <=0.25 μg/mL | MIC ATB in combination ([2]; ECO 190549, AF1 @ 8 μg/mL): <=0.25 μg/mL | MIC ATB in combination ([2]; ECO 200159, AF1 @ 4 μg/mL): <=0.25 μg/mL | MIC ATB in combination ([2]; ECO 200159, AF1 @ 8 μg/mL): <=0.25 μg/mL | MIC ATB in combination ([2]; ECO 200259, AF1 @ 4 μg/mL): <=0.25 μg/mL | MIC ATB in combination ([2]; ECO 200259, AF1 @ 8 μg/mL): <=0.25 μg/mL | MIC ATB in combination ([2]; ECO 200344, AF1 @ 4 μg/mL): <=0.25 μg/mL | MIC ATB in combination ([2]; ECO 200344, AF1 @ 8 μg/mL): <=0.25 μg/mL | MIC ATB in combination ([2]; ECO 260096, AF1 @ 4 μg/mL): <=0.25 μg/mL | MIC ATB in combination ([2]; ECO 260096, AF1 @ 8 μg/mL): <=0.25 μg/mL | MIC ATB in combination ([2]; ECO 260304, AF1 @ 4 μg/mL): <=0.25 μg/mL | MIC ATB in combination ([2]; ECO 260304, AF1 @ 8 μg/mL): <=0.25 μg/mL | MIC ATB in combination ([2]; ECO 260508, AF1 @ 4 μg/mL): <=0.25 μg/mL | MIC ATB in combination ([2]; ECO 260508, AF1 @ 8 μg/mL): <=0.25 μg/mL | MIC ATB in combination ([2]; ECO RGN238, AF1 @ 4 μg/mL): <=0.25 μg/mL | MIC ATB in combination ([2]; ECO RGN238, AF1 @ 8 μg/mL): <=0.25 μg/mL | MIC ATB in combination ([2]; ECO UFR15, AF1 @ 4 μg/mL): <=0.25 μg/mL | MIC ATB in combination ([2]; ECO UFR15, AF1 @ 8 μg/mL): <=0.25 μg/mL | MIC ATB in combination ([2]; ECO UFR16, AF1 @ 4 μg/mL): <=0.25 μg/mL | MIC ATB in combination ([2]; ECO UFR16, AF1 @ 8 μg/mL): <=0.25 μg/mL | MIC ATB in combination ([2]; ECO UFR17, AF1 @ 4 μg/mL): 16 µg/mL | MIC ATB in combination ([2]; ECO UFR17, AF1 @ 8 μg/mL): 2 µg/mL | MIC ATB in combination ([2]; ECO UFR18, AF1 @ 4 μg/mL): 1 µg/mL | MIC ATB in combination ([2]; ECO UFR18, AF1 @ 8 μg/mL): <=0.25 μg/mL | MIC ATB in combination ([2]; ECO UFR19, AF1 @ 4 μg/mL): 1 µg/mL | MIC ATB in combination ([2]; ECO UFR19, AF1 @ 8 μg/mL): <=0.25 μg/mL | MIC ATB in combination ([2]; ECO UFR20, AF1 @ 4 μg/mL): 1 µg/mL | MIC ATB in combination ([2]; ECO UFR20, AF1 @ 8 μg/mL): 1 µg/mL | MIC ATB in combination ([2]; ECO UFR61O, AF1 @ 4 μg/mL): 2 µg/mL | MIC ATB in combination ([2]; ECO UFR61O, AF1 @ 8 μg/mL): 0.5 µg/mL | MIC ATB in combination ([2]; ECO UFR62, AF1 @ 4 μg/mL): <=0.25 μg/mL | MIC ATB in combination ([2]; ECO UFR62, AF1 @ 8 μg/mL): <=0.25 μg/mL
